# Laboratory results reported in patent US10351500B2, “Method of using of dihydro-resveratrol or its stilbenoid derivatives and/or chemical variants as antimicrobial agents” (Hong Kong Baptist University, priority 2015, dated 2019).
# Tests used:
# Streptococcus mutans = assay: anti-bacterial growth inhibition, S. mutans; assay type: cell-based; conditions: Streptococcus mutans, S. mutans, 10 hours, 30° C., OD 600 nm
# Description: (§1) Evaluation of anti-bacterial activity. In a single well of the 96-well microplate, 10 μL of the testing compound is added into 190 μL of growth medium growth medium (BBL™ Brain Heart Infusion) containing an overnight culture of Streptococcus mutans or Streptococcus sobrinus at a density of approximately 5×10^5 CFU. The testing compounds include dihydro-resveratrol and DR1 to DR11. Wells incubated with 10 μL 0.5% DMSO only (i.e. no testing compound) are served as the experimental control of bacterial growth whilst those incubated with growth medium only (i.e. no bacteria) are served as the negative control. […] The percentage of growth inhibition of S. mutans by the different concentrations of testing compounds is shown in Table 12 whereas the percentage of growth inhibition of S. sobrinus is shown in Table 13. The images of S. mutans culture are captured post treatment of dihydro-resveratrol (100 μM) and DR8 (100 μM) when compared to the growth of experimental control and negative control (FIG. 31).
# [1] = system: skin color at the arms of individual human subjects; assay: skin colorimeter ITA° measurement after topical stilbenoid solution; assay type: in vivo
# Description: To determine the skin color of the individual human subjects, the initial skin conditions at the arms of the individuals are tested by the skin colorimeter MPA 5 on day 0. The individual typology angle (ITA°) is calculated by the colorimeter based on the luminance (L*) and yellow-blue component (b*) values. The greater the ITA° value, the greater the skin whiteness [S. Del Bino and F. Bernerd. Variations in skin colour and the biological consequences of ultraviolet radiation exposure. British Journal of Dermatology 2013; 169 (Suppl. 3), 33-40]. In fact, skin colors are classified into 6 major divisions: very light, light, intermediate, tan, brown and dark as listed in Table 4. Two areas (2 cm×2 cm each) are selected as treated areas whereas regions surrounding the treated areas on the arms are regarded as control areas. A volume of 200 μL of the testing stilbenoids (2% by weight dissolved in ethanol) is applied to the designated area twice a day, day and night. At the end of the first week (day 7), individuals are tested with the skin colorimeter for recording the data about using the stilbenoids for 7 days. Again, at the end of the second week (day 14), individuals are tested with the skin colorimeter for recording the data about using the stilbenoids for 14 days.
# [2] = system: Trichophyton mentagrophytes; assay: anti-fungal growth inhibition, T. mentagrophytes; assay type: cell-based; conditions: Trichophyton mentagrophytes, 168 h, T. mentagraphytes, one week, 30° C., OD 510 nm
# Description: (§2) Evaluation of anti-fungal activity. In a single well of the 96-well microplate, 10 μL of the testing compound is added into 190 μL of growth medium (Difco™ YM) containing an overnight culture of Trichophyton rubrum or Trichophyton mentagrophytes at a density of approximately 5×10^5 CFU. The testing compounds include dihydro-resveratrol and DR1 to DR11. Wells incubated with 10 μL 0.5% DMSO only (i.e. no testing compound) are served as the experimental control of fungal growth whilst those incubated with growth medium only (i.e. no fungi) are served as the negative control. […] The percentage of growth inhibition of T. mentagrophytes by the different concentrations of testing compounds is shown in Table 10 whilst the percentage of growth inhibition of T. rubrum is shown in Table 11. The images of T. mentagrophytes culture are captured post treatment of dihydro-resveratrol (100 μM) and DR8 (100 μM) when compared to the growth of experimental control and negative control (FIG. 30).
# Streptococcus sobrinus = assay: anti-bacterial growth inhibition, S. sobrinus; assay type: cell-based; conditions: Streptococcus sobrinus, S. sobrinus, 10 hours, 30° C., OD 600 nm
# Description: as §1
# Trichophyton rubrum = assay: anti-fungal growth inhibition, T. rubrum; assay type: cell-based; conditions: Trichophyton rubrum, 168 h, T. rubrum, one week, 30° C., OD 510 nm
# Description: as §2
# pancreatic acinar cells = assay type: cell-based; conditions: rat, 24 h
# Description: Functional intact acini were dissociated from pancreatic tissue using collagenase digestion with mild shearing forces. Acini were cultured in Dulbecco's modification of Eagle's medium (GIBCO) supplemented with 5% fetal bovine serum (GIBCO), 1% penicillin-streptomycin (GIBCO) in a 5% CO2, 95% air humidified atmosphere at 37° C. […] MTT reagent was added to the cells at the end of the 24-hour treatment period. After a 3-hour reaction time, MTT products were dissolved in DMSO and absorbance at 570 nm was taken.
# [3] = 25 μM, read-out: Inhibition rate (25 μM)
# [4] = 50 μM, read-out: Inhibition rate (50 μM)
# [5] = 100 μM, read-out: Inhibition rate (100 μM)
smiles,measurement,setting,value
"Oc1ccc(/C=C/c2cc(O)cc(O)c2)cc1 [Trans-resveratrol, trans-resveratrol, reference compound]",inhibition at 25 µM,Streptococcus mutans; [3],8.91%
same,inhibition at 50 µM,Streptococcus mutans; [4],5.77%
same,inhibition at 100 µM,Streptococcus mutans; [5],3.83%
same,whitening effect on skin,"[1]; 2% by weight in ethanol, topical twice a day, most individuals",Overt whitening effect
same,ITA° measurement,"[1]; Individual No. 1, day 7, 2% solution topical",47.7 ± 1.155 °
same,ITA° measurement,"[1]; Individual No. 1, day 14, 2% solution topical",46.4 ± 0.548 °
same,ITA° measurement,"[1]; Individual No. 2, day 7, 2% solution topical",39.2 ± 2.564 °
same,ITA° measurement,"[1]; Individual No. 2, day 14, 2% solution topical",44.8 ± 2.871 °
same,ITA° measurement,"[1]; Individual No. 3, day 7, 2% solution topical",38.0 ± 1.732 °
same,ITA° measurement,"[1]; Individual No. 3, day 14, 2% solution topical",36.2 ± 1.789 °
same,ITA° measurement,"[1]; Individual No. 4, day 7, 2% solution topical",22.4 ± 1.715 °
same,ITA° measurement,"[1]; Individual No. 4, day 14, 2% solution topical",29.4 ± 1.342 °
same,ITA° measurement,"[1]; Individual No. 5, day 7, 2% solution topical",26.6 ± 1.159 °
same,ITA° measurement,"[1]; Individual No. 5, day 14, 2% solution topical",34.0 ± 2.168 °
same,ITA° measurement,"[1]; Individual No. 6, day 7, 2% solution topical",28.2 ± 2.718 °
same,ITA° measurement,"[1]; Individual No. 6, day 14, 2% solution topical",41.8 ± 3.372 °
same,ITA° measurement,"[1]; Individual No. 7, day 7, 2% solution topical",20.6 ± 1.140 °
same,ITA° measurement,"[1]; Individual No. 7, day 14, 2% solution topical",20.4 ± 0.578 °
same,ITA° measurement,"[1]; Individual No. 8, day 7, 2% solution topical",14.0 ± 1.232 °
same,ITA° measurement,"[1]; Individual No. 8, day 14, 2% solution topical",9.6 ± 1.342 °
same,ITA° measurement,"[1]; Individual No. 9, day 7, 2% solution topical",−7.2 ± 1.789 °
same,ITA° measurement,"[1]; Individual No. 9, day 14, 2% solution topical",−7.4 ± 1.140 °
same,inhibition at 25 µM,[2]; [3],5.35%
same,inhibition at 50 µM,[2]; [4],13.9%
same,inhibition at 100 µM,[2]; [5],32.4%
same,inhibition at 25 µM,Streptococcus sobrinus; [3],6.71%
same,inhibition at 50 µM,Streptococcus sobrinus; [4],1.17%
same,inhibition at 100 µM,Streptococcus sobrinus; [5],2.46%
same,inhibition at 25 µM,Trichophyton rubrum; [3],6.56%
same,inhibition at 50 µM,Trichophyton rubrum; [4],11.6%
same,inhibition at 100 µM,Trichophyton rubrum; [5],21.6%
same,"cytotoxicity (MTT, mitochondrial metabolic rates)",pancreatic acinar cells,roughly 250 μM
